Assay [1] has as its target T1, recombinant PCSK9 (Homo sapiens, UniProt Q8NBP7). The assay can be described thus: DiI-LDL Uptake Assay in HepG2 cells with recombinant PCSK9. It counts as cell-based. Conditions: 2.5 ug/mL PCSK9, read-out: Uptake Assay: % Inhibition of 2.5 ug/mL recombinant PCSK9 @ X compound dose; for inhibition at 0.313 µM: 0.313 uM compound; for inhibition at 10 µM: 10 uM compound; for inhibition at 1.25 µM: 1.25 uM compound. As for the experimental part:
(§1) The cells were incubated in a 96-well plate for a total of 16 h in the absence or presence of recombinant PCSK9 (final concentration 2.5 ug/ml) protein alone or recombinant PCSK9 protein pre-mixed with indicated concentration of experimental compounds (Cmpd #). After 16 h, DiI-LDL (final concentration 5 ug/ml) was added to the incubation mixtures. After 4 h, cells are stained with Hoechst 33342 for 30 minutes, then rinsed with phosphate buffered saline, and then a final volume of 100 ul phosphate buffered saline was added to each well. The fluorescence was measured (DiI: excitation at 550 nm and emission at 590 nm; Hoechst: excitation at 355 nm, emission at 460 nm). […] The cells were incubated in 24-well plates for a total of 6 h in the absence or presence of recombinant PCSK9 protein (final concentration of 5.0 ug/ml), or in the presence of PCSK9 protein mixed with indicated concentration of experimental compound (Cmpd #). After 6 hours, the cells were released from the plate, stained with anti-LDLR antibody, then rinsed, counterstained with DAN, and then measured by fluorescence activated cell sorting (FACS). The percent recombinant PCSK9 inhibition was calculated as [‘Compound Dose LDLR Fluorescence’-‘5.0 ug/ml PCSK9-treated LDLR Fluorescence’]/[‘PCSK9 Basal LDLR Fluorescence’-‘5.0 ug/ml PCSK9-treated LDLR Fluorescence’]×100%.
Cellular DiI-LDL uptake can be measured using protocols adapted from Benjannet et al., “Effects of the prosegment and pH on the activity of PCSK9: evidence for additional processing events” J Biol Chem. 285(52): 40965-40978 (2010) and “Composition and Methods of Use of Small Molecules as Binding Ligands for the Modulation of Proprotein Convertase Subtilisin/Kexin Type 9 (PCSK9) Protein Activity” (WO2016029037), which are incorporated by reference in their entirety.
Cells, such as HepG2, HuH7, FL83B, or a cell line transfected with a short-hairpin PCSK9 knockdown sequence such as HepG2/shPCSK9, HuH7/shPCSK9, or FL83B/shPCSK9 are plated and cultured at 37° C. for 12-24 h. Culture media is removed and replaced with fresh lipoprotein-depleted culture media supplemented with 5 ug/mL of DiI-LDL (Kalen Biomedical) or lipoprotein-depleted culture media supplemented with 5 ug/mL of Dil-LDL plus a predetermined concentration of recombinant PCSK9, for example a 10 nM final concentration of PCSK9. Lipoprotein-depleted culture media can be composed of DMEM (Invitrogen) with 10% lipoprotein-depleted fetal bovine serum (Kalen Biomedical) and supplemented with penicillin-streptomycin (Life Technologies). Cells are dosed with small molecule test compounds at doses ranging from 0 nM to 100 uM.
Following an incubation period of specified length, such as 6 hours, Hoechst 33342 (AnaSpec) stain is added to the cell media per manufacturer's instructions and incubated for a specified length (e.g., 30 minutes). The lipoprotein-depleted media is removed and cells rinsed three times with phosphate buffered saline. A final volume of phosphate buffered saline is added back to the wells. The DiI fluorescence is measured with a plate reader using an exciting wavelength of 550 nm and the resulting emission at 590 nm is measured. The Hoechst stain fluorescence is measured with a plate reader using an exciting wavelength of 355 nm and the resulting emission at 460 nm is measured.
Cells are analyzed by for both Hoechst stain (DNA content) and DiI-LDL fluorescence. Cells incubated with small molecule compounds that are inhibitors of PCSK9 will be expected to show increased amounts of DiI-LDL fluorescence, relative to control (no compound) specimens, and cells incubated with small molecule compounds that are activators of PCSK9 will be expected to show decreased amounts of DiI-LDL fluorescence relative to control (no compound) specimens.

Assay [2] addresses T1, recombinant PCSK9. The assay can be described thus: LDLR FACS (flow) Assay in HuH7 cells with recombinant PCSK9. Type of assay: cell-based. Conditions: 5.0 ug/mL PCSK9, read-out: LDLR Flow Assay: % Inhibition of 5.0 ug/mL recombinant PCSK9 @ X compound dose; for inhibition at 5 µM: Huh-7, 5 uM compound. The method, then: as §1
LDLR levels can be measured using flow cytometry or fluorescence activated cell sorting (FACS) using protocols adapted from Benjannet et al., “Effects of the prosegment and pH on the activity of PCSK9: evidence for additional processing events” J Biol Chem. 285(52): 40965-40978 (2010) and “Composition and Methods of Use of Small Molecules as Binding Ligands for the Modulation of Proprotein Convertase Subtilisin/Kexin Type 9 (PCSK9) Protein Activity” (WO2016029037), which are incorporated by reference in their entirety.
Cells, such as HepG2, HuH7, FL83B, or a cell line transfected with a short-hairpin PCSK9 knockdown sequence such as HepG2/shPCSK9, HuH7/shPCSK9, or FL,83B/shPCSK9 are plated and cultured at 37° C. for 12-24 h. Culture media is removed and replaced with fresh culture media or culture media plus a predetermined amount of recombinant PCSK9, for example a 10 nM final concentration of PCSK9. Cell culture media can be composed of DMEM (Invitrogen) with 10% fetal bovine serum (Life Technologies) supplemented with penicillin-streptomycin (Life Technologies). Cells are dosed with small molecule test compounds at doses ranging from 0 nM to 100 uM
Following an incubation period of specified length, such as 6 hours, the media is removed and the cells are rinsed three times with a rinse solution (i.e., Dulbecco's phosphate buffered saline (D-PBS, Life Technologies) supplemented with 0.5% bovine serum albumin (BSA, Sigma) and 1 g/L glucose (Sigma)). The fluid is then removed, and cells are released from the plate using TrypLE Express (Life Technologies) per manufacturer's recommend procedures, such as incubation for 5-10 minutes at 37° C. The TyrpLE-Cell suspension is then transferred to 15 mL conical tubes, volume is increased to 2 mL with D-PBS supplemented with 0.5% BSA and […] glucose, and the tubes are centrifuged at 250× gravity for 10 minutes. Following centrifugation, the supernatant is aspirated and the cell pellet is resuspended in 100 uL D-PBS containing 0.5% BSA and […] glucose, and cells are labeled with anti-LDLR antibody per the manufacturer's recommended procedure. The cells are then pelleted by centrifugation, resuspended in 300 uL PBS and counterstained with 4′,6-Diamidino-2-phenylindole (DAPI, Cayman Chemical) as a cell viability marker, other cell viability markers such as 7-aminoactinomycin D (7AAD, Life Technologies) have also been described in the art.
Cells are analyzed for both cell viability marker (dead cells) and LDLR in live cells using a flow cytometer per the manufacturer's operating manual. […]

T1 sequence (Q8NBP7 153-692): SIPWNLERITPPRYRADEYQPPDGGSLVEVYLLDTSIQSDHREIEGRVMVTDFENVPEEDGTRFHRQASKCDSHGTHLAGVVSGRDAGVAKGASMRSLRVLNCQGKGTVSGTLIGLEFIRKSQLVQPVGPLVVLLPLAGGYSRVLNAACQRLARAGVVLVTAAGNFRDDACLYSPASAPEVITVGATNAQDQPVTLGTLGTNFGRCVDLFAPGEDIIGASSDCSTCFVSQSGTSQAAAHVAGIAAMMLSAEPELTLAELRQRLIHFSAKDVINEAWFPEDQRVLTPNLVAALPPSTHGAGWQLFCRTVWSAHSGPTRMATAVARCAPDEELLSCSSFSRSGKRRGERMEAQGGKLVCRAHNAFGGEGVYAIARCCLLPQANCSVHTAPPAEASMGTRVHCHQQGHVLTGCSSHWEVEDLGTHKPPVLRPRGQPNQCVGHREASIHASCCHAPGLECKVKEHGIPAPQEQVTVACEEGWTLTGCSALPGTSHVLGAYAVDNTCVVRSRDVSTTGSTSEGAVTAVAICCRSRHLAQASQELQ

As for `c1ccc(-c2ccc3c(c2)CNCC3)cc1` [Compound 1, 7-phenyl-1,2,3,4-tetrahydroisoquinoline], at recombinant PCSK9 [1], the inhibition at 0.313 µM was around 45% and the inhibition at 10 µM was above 100%. Also, the inhibition at 0.625 µM on recombinant PCSK9 [2] (Huh-7, 0.625 uM compound) was around 10%. Further, the inhibition at 1.25 µM at recombinant PCSK9 [2] (Huh-7, 1.25 uM compound) is around 15%. In addition, the inhibition at 20 µM on recombinant PCSK9 [2] (Huh-7, 20 uM compound) was around 20%.

On to `Cc1cc(-c2ccccc2F)cc2c1CCNC2=O` [Compound 4, 7-(2-fluorophenyl)-5-methyl-3,4-dihydroisoquinolin-1(2H)-one], for which, on recombinant PCSK9 [1] (20 µM compound), the inhibition at 20 µM was around 18%. The inhibition at 5 µM on recombinant PCSK9 [2] is around 10%.

Consider `Cc1cc(-c2ccccc2F)cc2c1CCNC2` [Compound 3, 7-(2-fluorophenyl)-5-methyl-1,2,3,4-tetrahydroisoquinoline], for which, at recombinant PCSK9 [1], the inhibition at 1.25 µM was around 42% and the inhibition at 10 µM is above 100%.

`Cc1cc2c(cc1-c1ccccc1F)C(=O)NCC2` [Compound 5, 7-(2-fluorophenyl)-6-methyl-3,4-dihydroisoquinolin-1(2H)-one]: the inhibition at 1.25 µM on recombinant PCSK9 [1] was around 33%. In addition, the inhibition at 10 µM on recombinant PCSK9 [2] (Huh-7, 10 uM compound) was around 10%.

In the case of `Cc1cc2c(cc1-c1ccccc1F)CNCC2` [Compound 2, 7-(2-fluorophenyl)-6-methyl-1,2,3,4-tetrahydroisoquinoline], on recombinant PCSK9 [1], the inhibition at 0.313 µM was around 50% and the inhibition at 10 µM was above 100%. At recombinant PCSK9 [2], the inhibition at 5 µM was around 19%.
